The test system of one experiment is macrophage PLD. The class given is cell-based, human.
Another experiment relates to Cathepsin D. The experiment in a line: Western blot of Cathepsin D in macrophage phagosomal fractions after latex beads internalisation. As to conditions: 5 μM S1P, 24 hours after latex beads internalisation. Type of experiment: cell-based, human. On the procedure:
In order to analyse the expression of an intralysosomal protein within beads containing phagolysosomes the macrophage phagosomal fraction was separated. Particularly, cells were incubated with sterile latex beads ([…]) (Sigma), 1: 200 diluted, in culture medium for 1 hour in the presence of 5% CO2 and then treated with 5 μM S1P.
Separation of the phagosomes was carried out by centrifugation on sucrose gradient. Cells were washed three times with PBS (twice for 10 minutes) and then again incubated for 24 hours at 37°C. Following the internalisation and 24 hour incubation period cells were washed with cold PBS and collected using a little scraper in PBS at 4° C., then centrifuged at 2000 rpm for 10 minutes at 4° C. and finally washed with homogenising buffer (250 mM sucrose, 3 mM imidazole, pH 7.4) again at 4° C. Cellular pellet was suspended in 1 ml homogenising buffer and cells were lysed with an homogenizer. Phagosomes were isolated by centrifugation on sucrose gradient. Cells, suspended in 1 ml of PBS, were added to 1 ml of 40% sucrose solution and such a suspension was stratified on 2 ml of 62% sucrose solution in ultracentrifuge tubes. Then 2 ml of 35%, 25% and 10% sucrose solutions were stratified (all the solutions were prepared in 3 mM imidazole, pH 7.4). The tubes were ultra-centrifuged using SW41 rotor at 100000 g at 4° C. […]

The subject of a further experiment is H37Rv MTB. Nature of the experiment: Mycobacterial viability (CFU) in MTB infected monocyte derived macrophages. To be noted: MTB MOI 1:1, S1P 5 μM, 5 days after the infection, statistically significant. The class given is cell-based, Mycobacterium tuberculosis. On the procedure: In order to evaluate the bacterial viability, monocyte derived macrophages were infected for 3 hours with MTB at 1:1 macrophage/bacterium infection ratio and then treated with S1P (5 μM). At time 0(just after infection) and after 2 and 5 days the plates containing infected cellular cultures were centrifuged at 2000 RPM for 10 minutes and the supernatant was discarded. Then 1 ml PBS and 0.1% saponin were added to each well and the contents were incubated for 20 minute at 37° C. After incubation cellular lysates were sonicated for 20 seconds in such a way to break any possible bacterial aggregates. Lysates thus obtained were diluted in sterile saline 1:100, 1:1000, 1:10000 with addition of 0.01% Tween 80 and plated on Middlebrook 7H10 (Difco). Plates were incubated at 37° C. for about one month and colonies enumerated.
Based on the observations about the possible antimicrobial role of PLD and S1P during Mycobacterium tuberculosis infection it was investigated whether S1P macrophage exogenous stimulation and PLD activation were associated to a reduction of mycobacterial viability. To that object, monocytes were infected for three hours with H37Rv MTB at a multiplicity of infection of 1 bacillus for 1 cell. […]

Experiment [1] has as its system Mycobacterium tuberculosis. The experiment in a line: Dose dependent effect of S1P on MTB replication in macrophages from peripheral blood monocytes. The class given is cell-based. To be noted: human monocyte-derived macrophages, 4 donors, 0.5, 5 or 50 μM, fifth day after infection. The procedure:
Peripheral blood mononuclear cells were isolated from human Buffy coat blood preparations by gradient centrifugation and suspended at 5×10^6/ml in complete medium [RPMI 1640 (Gibco BRL) supplemented with 10% fetal bovine serum (Gibco BRL), 5 mM L-glutamine and Gentamicine (5 μg/ml)]. Monocytes were then separated by adherence for 1 hour in polystyrene 75 cm^2 flasks (Corning, Cambridge, Mass.). After incubation, non-adherent cells were removed by three washes with warm RPMI 1640. […] Finally, adherent monocytes were collected after 15 minute incubation at 4° C. in the presence of 5 mM EDTA in PBS. Cells then were washed, incubated in complete medium for 5-7 days in 24 well plate at the concentration of 10^6 cells/ml to get monocyte-derived macrophages. […]
Sphingosine 1-phosphate (S-1P), used at the concentrations of 0.5, 5 or 50 μM inhibits intracellular replication of Mycobacterium tuberculosis in human monocyte-derived macrophages (MDM) from peripheral blood of healthy donors. Results are obtained from experiments performed on MDM from 4 different donors and are expressed as the means of the percentages of mycobacterial killing±standard error at the fifth day after infection. Percentage of mycobacterial killing is calculated by using the following formula: [1−(CFU from infected and S-1P stimulated MDM/CFU from infected unstimulated MDM)]×100.

SMILES strings stand for the structures.

Take `CCCCCCCCCCCCC/C=C/[C@@H](O)[C@@H](N)COP(=O)(O)O` [S1P, D-erythro-sphingosine 1-phosphate]: in the experiment with macrophage PLD, the “Pet-OH production, index of PLD activity, versus MTB infected non S1P treated macrophages” value was “higher”; the “S1P concentration giving maximum activation of macrophage PLD” value stood at 5 µM; the “time of maximum activation of macrophage PLD” value came to 30 min. For the same molecule, in the experiment with Cathepsin D, the “amount of intralysosomal protein (Cathepsin D) in the phagosomal fraction versus non-treated macrophages” value is on record as “higher”. Besides, the “CFU number after S1P treatment” value in the experiment on H37Rv MTB was “reduced”. In addition, the “intracellular replication of Mycobacterium tuberculosis (percentage of mycobacterial killing)” value in experiment [1] is on record as “inhibits”.
